Here are results for two molecules from patent publication US20220072131A1, “Dihydroxyphenyl Neurotransmitter Compounds, Compositions And Methods” (Auspex Pharmaceuticals, Inc., priority 2013, published 2022).

Data set [1] has as its system anesthetized rats. Nature of the data set: Change of mean arterial blood pressure in anesthetized rats following intravenous administration. The following applies: 2 mg/kg, in comparison to the same dose of L-threo-DOPS. Type of data set: in vivo, rat. Here is the method: Change of Mean Arterial Blood Pressure in Anesthetized Rats Following Intravenous Administration of 2 mg/kg L-Threo-2,3-Dideutero POPS in Comparison to the Same Dose of L-Threo-DOPS

Data set [2] has as its target T1, monoamine oxidase-A (MAO-A) (Homo sapiens, UniProt P21397).
T1 sequence (P21397 1-527): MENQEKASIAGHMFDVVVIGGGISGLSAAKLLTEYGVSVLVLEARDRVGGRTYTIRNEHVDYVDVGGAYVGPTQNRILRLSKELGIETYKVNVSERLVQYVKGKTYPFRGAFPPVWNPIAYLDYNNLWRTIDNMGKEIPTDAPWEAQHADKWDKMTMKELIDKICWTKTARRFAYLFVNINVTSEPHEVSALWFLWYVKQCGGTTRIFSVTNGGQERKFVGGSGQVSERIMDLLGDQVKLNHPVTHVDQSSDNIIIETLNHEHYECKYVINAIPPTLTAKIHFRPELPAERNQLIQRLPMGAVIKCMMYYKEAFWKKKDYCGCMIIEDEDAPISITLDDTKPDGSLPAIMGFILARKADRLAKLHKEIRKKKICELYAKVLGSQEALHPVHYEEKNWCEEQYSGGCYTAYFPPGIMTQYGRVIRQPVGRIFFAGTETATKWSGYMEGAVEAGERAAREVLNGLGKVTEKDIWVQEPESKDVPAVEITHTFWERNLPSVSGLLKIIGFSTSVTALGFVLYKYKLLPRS
The experiment in a line: In vitro monoamine oxidase A degradation assay. It is filed as in vitro ADME. The following applies: incubated with MAO-A; compared to non-deuterated norepinephrine; disappearance of norepinephrine tracked. Here is the method:
Norepinephrine and d6-norepinephrine were incubated with monoamine oxidase-A (MAO-A).
The appearance of 3,4-dihydroxyphenylglycolaldehyde and the disappearance of norepinephrine were tracked. Compared to non-deuterated norepinephrine, d6-norepinephrine was associated with about a 5-fold decrease in digestion by MAO-A and about a 75% decrease in 3,4-dihydroxyphenylglycolaldehyde production.
The assay method is a batch alumina extraction followed by liquid chromatography with electrochemical detection. The post-column electrodes are arranged in series, with an oxidizing potential at the first electrode and reducing potential at the third. This series arrangement of flow-through electrodes reduces the solvent front substantially and improves the sensitivity and specificity for detecting reversibly oxidized species such as catechols. 3,4-Dihydroxyphenylglycolaldehyde is identified by a broad, short peak within the solvent front.

As to `[2H]C(N)(C(=O)O)C([2H])(O)c1ccc(O)c(O)c1` [L-threo-2,3-dideutero DOPS], the “Change of mean arterial blood pressure” value in data set [1] is “enhanced and prolonged increase”.

Take `[2H]c1c([2H])c([C@@]([2H])(O)C([2H])([2H])N)c([2H])c(O)c1O` [d6-norepinephrine]: the “decrease in digestion by MAO-A” value in data set [2] is reported as roughly 5 fold.
